Here are results for four compounds from ChEMBL document CHEMBL4145492, “Discovery of biphenyl-substituted diarylpyrimidines as non-nucleoside reverse transcriptase inhibitors with high potency against wild-type and mutant HIV-1” (Eur J Med Chem, 2018).

For series [1], the system named is Human immunodeficiency virus 1. Put plainly: Antiviral activity against HIV1 harboring reverse transcriptase Y188L mutant infected in human MT4 cells assessed as reduction of virus-induced cytopathic effect after 4 days by MTT assay. The series is classed as functional, organism-based. The following applies: Human immunodeficiency virus 1, MT4, 96 h.
Series [2] concerns Human immunodeficiency virus 1. In words: Antiviral activity against wild type HIV1 3B infected in human MT4 cells assessed as reduction of virus-induced cytopathic effect after 4 days by MTT assay. The series is classed as functional, organism-based. The following applies: Human immunodeficiency virus 1, 3B, MT4, 96 h. On the technique in general: Protection from cytopathic effect is a common read-out in antiviral testing.

Series [3] can be described thus: Selectivity index, ratio of CC50 for human MT4 cells to EC50 for wild type HIV1 3B. The series is classed as toxicity. Conditions: read-out: Ratio CC50/EC50.
Series [4] concerns Human immunodeficiency virus 1. Put plainly: Antiviral activity against HIV1 harboring reverse transcriptase L100I mutant infected in human MT4 cells assessed as reduction of virus-induced cytopathic effect after 4 days by MTT assay. The series is classed as functional, organism-based. The following applies: Human immunodeficiency virus 1, MT4, 96 h.
In series [5] the target is Human immunodeficiency virus type 1 reverse transcriptase (Human immunodeficiency virus 1, UniProt Q72547). Put plainly: Inhibition of recombinant wild type HIV1 reverse transcriptase p66/p51 using poly (rA)/anoligo (dT)16 as template/primer assessed as inhibition of biotin-dUTP incorporation after 40 mins by Pico-Green staining based fluorescence assay.
The subject of series [6] is Human immunodeficiency virus 1. In words: Antiviral activity against HIV1 harboring reverse transcriptase E138K mutant infected in human MT4 cells assessed as reduction of virus-induced cytopathic effect after 4 days by MTT assay. The series is classed as functional, organism-based. Conditions: Human immunodeficiency virus 1, MT4, 96 h.
The subject of series [7] is Human immunodeficiency virus 1. Put plainly: Antiviral activity against HIV1 harboring reverse transcriptase F227L/V106A double mutant infected in human MT4 cells assessed as reduction of virus-induced cytopathic effect after 4 days by MTT assay. Conditions: Human immunodeficiency virus 1, MT4, 96 h. The series is classed as functional, organism-based.
Series [8] relates to Human immunodeficiency virus 2. Put plainly: Antiviral activity against HIV2 ROD infected in human MT4 cells assessed as reduction of virus-induced cytopathic effect after 4 days by MTT assay. The series is classed as functional, organism-based. The following applies: Human immunodeficiency virus 2, ISOLATE ROD, MT4, 96 h.
In series [9] the test system is Human immunodeficiency virus 1. Put plainly: Antiviral activity against HIV1 RES056 harboring reverse transcriptase K103 N/Y181C double mutant infected in human MT4 cells assessed as reduction of virus-induced cytopathic effect after 4 days by MTT assay. The series is classed as functional, organism-based. Conditions: Human immunodeficiency virus 1, RES056, MT4, 96 h.

In series [10] the test system is Human immunodeficiency virus 1. Put plainly: Antiviral activity against HIV1 harboring reverse transcriptase K103N mutant infected in human MT4 cells assessed as reduction of virus-induced cytopathic effect after 4 days by MTT assay. The series is classed as functional, organism-based. The following applies: Human immunodeficiency virus 1, MT4, 96 h.
Series [11] concerns Human immunodeficiency virus 1. Put plainly: Antiviral activity against HIV1 harboring reverse transcriptase Y181C mutant infected in human MT4 cells assessed as reduction of virus-induced cytopathic effect after 4 days by MTT assay. The following applies: Human immunodeficiency virus 1, MT4, 96 h. The series is classed as functional, organism-based.
The nature of series [12]: Cytotoxicity against human MT4 cells assessed as reduction in cell viability after 4 days by MTT assay. The series is classed as cell-based.
The test system of series [13] is Human immunodeficiency virus 1. In words: Potency index, ratio of nevirapine EC50 to test compound EC50 for wild type HIV1 3B infected in human MT4 cells. The series is classed as functional.

By EC50 is commonly meant the concentration that produces a half-maximal response. One may read the IC50 as the concentration that inhibits the measured activity by half. By CC50 is commonly meant the concentration giving 50% cytotoxicity. With `Cc1cc(-c2ccc(F)cc2)cc(C)c1Nc1ccnc(Nc2ccc(C#N)cc2)n1`, the EC50 in series [1] is 160 nM; in [2], 1.4 nM; in series [4], 10 nM; in series [6] it was 8.1 nM; in series [7], 320 nM; in series [8], above 3990 nM. Also, the EC50 worked out at 190 nM in series [9], 2.3 nM in series [10] and 8.3 nM in [11]. The selectivity ratio in series [3] was found to be 2950. The IC50 in series [5] stood at 17 nM. For the same compound, the CC50 at 96 h in series [12] was determined as 4170 nM.

Regarding `Cc1cc(-c2ccccc2)cc(C)c1Nc1ccnc(Nc2ccc(C#N)cc2)n1`, the EC50 in [2] is 2.8 nM; in series [8] it was above 4170 nM. The selectivity ratio in [3] stood at 1520. In addition, the “Ratio EC50” value in series [13] came to 10. Besides, in [5], the IC50 was 16 nM. Further, the CC50 at 96 h in [12] amounted to 4170 nM.

With `Cc1cc(-c2cccc(C#N)c2)cc(C)c1Nc1ccnc(Nc2ccc(C#N)cc2)n1`, the EC50 in series [1] was above 920 nM; in series [2], 1.5 nM; in series [4], 17 nM; in [6], 8.1 nM; in series [7], above 920 nM; in series [8], above 920 nM. The EC50 amounted to 270 nM in series [9], 2.3 nM in series [10] and 11 nM in series [11]. The selectivity ratio in series [3] was found to be 601. Also, the half-inhibitory concentration (IC50) in [5] is 11 nM. The CC50 at 96 h in series [12] came out at 920 nM.

With `Cc1cc(-c2ccccc2F)cc(C)c1Nc1ccnc(Nc2ccc(C#N)cc2)n1`, the EC50 in series [1] is 130 nM; in series [2], 1.4 nM; in series [4] it was 12 nM; in series [6], 7.8 nM; in series [7], at least 390 nM; in series [8], above 2120 nM. Besides, the EC50 turned out to be 230 nM in series [9], 3.2 nM in [10] and 8 nM in series [11]. For the same compound, the selectivity ratio in series [3] was found to be 1540. Further, in [5], the IC50 came to 9 nM. For the same compound, in [12], the CC50 at 96 h was determined as 2120 nM.
